Measured values: patent publication US6814969B2, “Immunologically significant herpes simplex virus antigens and methods for using same” (University of Washington, priority 2001, dated 2004)

Experiments:
Type in all cases: cell-based, human
TCC BM.17 [1] = test: Cytolysis assay (4-hour 51Cr release), CD4 TCC BM.17; conditions: autologous EBV-LCL targets, HSV-2 infected or 1 μM peptide, E:T 20:1
Method: (§1) Cytolysis assays were performed in triplicate using 4-hour [^51]Cr release as described (D. M. Koelle et al., 1993, J. Clin. Invest., 91:961-968). […] W. Kwok et al., 1996,J. Exp. Med., 183:1253-1258). The effector to target ratio was 20:1. Spontaneous release was less than 28%.

TCC BM.17 [2] = test: T-cell proliferation, TCC BM.17; conditions: VP16 1-492 at 1 μg/ml, β-gal-VP16 180-492 at 1:1,000, peptides at 1 μM
Method: (§2) Triplicate proliferation assay wells contained 10^4 cloned T-cells, 10^5 irradiated (3300 rad) PBMC or 2.5×10^4 irradiated (8000 rad) EBV-LCL as antigen presenting cells (APC), and antigen in 200 μl T-cell media (D. M. Koelle et al., 1997, Human. Immunol., 53:195-205) in 96-well U-bottom plates. When heat-killed bacteria were used as antigen, the equivalent of 10^5 cfu/well (prior to inactivation) was added and gentamicin (20 μg/ml) was included. After 72 hours, 1 μCi/well ^[3]H thymidine was added for 18 hours, cells were harvested, and incorporation of thymidine evaluated by liquid scintillation counting. Standard deviations were less than 10% of the mean values. Results are reported as mean cpm or as delta cpm=mean cpm for experimental antigen minus mean cpm for control antigen. Control antigen was mock-infected cell lysate for whole viral antigens and pUEX2-derived β-galactosidase for recombinant protein preparations. […]
(§3) Three epitopes within VP16, all HSV-2 type-specific were previously identified (K. R. Jerome et al., 1998, J. Virol., 72:436-441), and proliferative responses to full-length VP16 in bulk cultures of genital HSV-2 lesion-infiltrating lymphocytes from four of seven (57%) patients were detected (D. M. Koelle et al., 1998, J. Clin. Invest., 101:1500-09). […]

TCC SB.17 [3] = test: T-cell proliferation, TCC SB.17; conditions: VP16 1-492 at 1 μg/ml, β-gal-VP16 180-492 at 1:1,000, peptides at 1 μM
Method: as §2, §3

TCC SB.17 [4] = test: Cytolysis assay (4-hour 51Cr release), CD4 TCC SB.17; conditions: autologous EBV-LCL targets, HSV-2 infected or 1 μM peptide, E:T 20:1
Method: as §1

Substance: VP16 437-449: HSV-2 VP16 (UL48) peptide, amino acids 437-449 (ADALDDFDLEMLG; UniProt P68336 437-449, looked up, fragment)
- percent specific release (TCC BM.17 [1]): 28.5%
- delta cpm [3H] thymidine incorporation compared to media (TCC BM.17 [2]): 79,723 cpm
- delta cpm [3H] thymidine incorporation compared to media (TCC SB.17 [3]): 36,442 cpm
- percent specific release (TCC SB.17 [4]): 60.6%
